In BindingDB's records for patent US20250313563 (The Broad Institute, 2025):
“And” between values parts separate entries of the source, which are not always exact repeats. Identical values can stand only once.

Experiments:
[1] = target: Glycogen synthase kinase-3 alpha (Homo sapiens, UniProt P49840); assay: TR-FRET Assay
Summary of the method: (§1)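 Enzyme and test compound were first incubated together for 30 minutes in assay buffer. The kinase reaction followed and was stopped with EDTA. The pSer641 signal was read by time-resolved FRET.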

[2] = target: Glycogen synthase kinase-3 beta (Homo sapiens, UniProt P49841); assay: TR-FRET Assay
Summary of the method: as §1

Sequence of Glycogen synthase kinase-3 alpha (P49840 whole entry): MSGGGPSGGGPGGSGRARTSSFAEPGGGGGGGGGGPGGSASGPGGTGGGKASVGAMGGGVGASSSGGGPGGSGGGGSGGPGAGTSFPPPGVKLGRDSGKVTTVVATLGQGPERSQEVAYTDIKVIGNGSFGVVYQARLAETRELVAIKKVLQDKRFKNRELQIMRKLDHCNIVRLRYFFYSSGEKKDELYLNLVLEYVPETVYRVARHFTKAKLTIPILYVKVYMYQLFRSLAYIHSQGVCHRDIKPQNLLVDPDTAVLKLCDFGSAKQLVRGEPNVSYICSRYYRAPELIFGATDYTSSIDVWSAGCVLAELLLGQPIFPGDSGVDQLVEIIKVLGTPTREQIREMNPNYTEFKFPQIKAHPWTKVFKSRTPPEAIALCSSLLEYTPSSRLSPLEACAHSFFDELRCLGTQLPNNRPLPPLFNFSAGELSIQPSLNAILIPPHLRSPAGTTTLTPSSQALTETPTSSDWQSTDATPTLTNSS
Sequence of Glycogen synthase kinase-3 beta (P49841 whole entry): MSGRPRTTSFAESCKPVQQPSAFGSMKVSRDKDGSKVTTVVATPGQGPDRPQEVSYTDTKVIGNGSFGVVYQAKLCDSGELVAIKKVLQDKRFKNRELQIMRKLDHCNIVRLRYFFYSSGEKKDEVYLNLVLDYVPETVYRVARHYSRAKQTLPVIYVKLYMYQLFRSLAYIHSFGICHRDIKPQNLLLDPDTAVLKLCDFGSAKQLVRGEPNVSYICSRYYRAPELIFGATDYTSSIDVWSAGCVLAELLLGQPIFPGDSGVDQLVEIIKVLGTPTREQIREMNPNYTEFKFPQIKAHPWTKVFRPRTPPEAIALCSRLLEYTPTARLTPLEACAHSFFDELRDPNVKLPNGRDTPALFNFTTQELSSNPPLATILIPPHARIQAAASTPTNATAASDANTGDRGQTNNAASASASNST

Structure (SMILES) | IC50 [1] | IC50 [2]
CCC1(c2cccc(-c3cnn4c3CCCC4)c2)C2=CN=NC2NC2=C1C(=O)NC(C)(C)C2 (stereo unspecified) [US20250313563, Compound 945603] | < 0.1 µM | 0.1 to 1 µM
CCCS(=O)(=O)c1cccc(C2(CC)C3=CN=NC3NC3=C2C(=O)CC(C)(C)C3)c1 (stereo unspecified) [US20250313563, Compound 917131] | < 0.1 µM | < 0.1 µM
CC1(C)CC(=O)C2=C(C1)NC1=C(CN=N1)C21COC2(CN(C(=O)C(C)(F)F)C2)C1 (stereo unspecified) [US20250313563, Compound 947275] | < 0.1 µM and 0.1 to 1 µM | < 0.1 µM and 0.1 to 1 µM
Cc1cnn(C)c1S(=O)(=O)N1CCC2(CC1)C1=C(N=NC1)NC1=C2C(=O)CC(C)(C)C1 [US20250313563, Compound 945658] | 0.1 to 1 µM | 1 to 5 µM
CC1(C)CC(=O)C2=C(C1)NC1=C(CN=N1)[C@]21CC[C@H](c2ccncc2)CC1 [US20250313563, Compound 949321] | < 0.1 µM | < 0.1 µM
CCC1(c2cccc(-c3cc(C)nnc3C)c2)C2=C(CC(C)(C)NC2=O)NC2N=NC(C(F)(F)F)=C21 (stereo unspecified) [US20250313563, Compound 949174] | < 0.1 µM and 0.1 to 1 µM | < 0.1 µM and 0.1 to 1 µM
CC[C@@]1(c2cccc(-c3ccnc(C)c3)c2)C2=C(CC(C)(C)NC2=O)NC2N=NC(C)=C21 (stereo partly specified) [US20250313563, Compound 948420] | < 0.1 µM | 0.1 to 1 µM
CC[C@@]1(c2cccc(-c3cnnc(C)c3)c2)C2=CN=NC2NC2=C1C(=O)CC(C)(C)C2 (stereo partly specified) [US20250313563, Compound 943994] | 0.1 to 1 µM | 1 to 5 µM
CC[C@]1(c2ccccc2)C2=CN=NC2NC2=C1C(=O)CC(C)(C)[C@@H]2F (stereo partly specified) [US20250313563, Compound 957196] | > 5 µM | > 5 µM
CCC1(c2cccc(-c3cnnn3C)c2)C2=CN=NC2NC2=C1C(=O)CC(C)(C)C2 (stereo unspecified) [US20250313563, Compound 947398] | < 0.1 µM | < 0.1 µM
CCC1(c2cccc(-c3cc(C)ncc3C)c2)C2=C(CC(C)(C)CC2=O)NC2N=NC(C(F)(F)F)=C21 (stereo unspecified) [US20250313563, Compound 945530] | < 0.1 µM | < 0.1 µM
CCC1(c2cccc(N(C)C(=O)c3cnn(C)c3)c2)C2=CN=NC2NC2=C1C(=O)CC(C)(C)C2 (stereo unspecified) [US20250313563, Compound 912068] | < 0.1 µM | 0.1 to 1 µM
CC1(C)CC(=O)C2=C(C1)NC1=C(CN=N1)C21CCN(S(=O)(=O)c2ccccc2Cl)CC1 [US20250313563, Compound 945655] | < 0.1 µM | < 0.1 µM
CC[C@@]1(c2cccc(-c3cc(OC)ncc3F)c2)C2=CN=NC2NC2=C1C(=O)CC(C)(C)C2 (stereo partly specified) [US20250313563, Compound 944032] | 0.1 to 1 µM | 1 to 5 µM
CC[C@@]1(c2cccc(-c3cc(C)nn3C)c2)C2=CN=NC2NC2=C1C(=O)NC(C)(C)C2 (stereo partly specified) [US20250313563, Compound 943967] | > 5 µM | > 5 µM
CC[C@@]1(c2cccc(-c3c(C)cncc3C)c2)C2=CN=NC2NC2=C1C(=O)NC(C)(C)C2 (stereo partly specified) [US20250313563, Compound 948812] | < 0.1 µM and 0.1 to 1 µM | < 0.1 µM and 1 to 5 µM
CC1(C)CC(=O)C2=C(NC3=C(CN=N3)C23CCN(S(=O)(=O)c2cccc(C(F)(F)F)c2)CC3)[C@@H]1F [US20250313563, Compound 951703] | < 0.1 µM and 0.1 to 1 µM | < 0.1 µM and 1 to 5 µM
CC[C@]1(c2cccc(Oc3ncccn3)c2)C2=CN=NC2NC2=C1C(=O)NC(C)(C)C2 (stereo partly specified) [US20250313563, Compound 949335] | > 5 µM | > 5 µM
Cn1ccc(CN2CC3(C2)C2=C(N=NC2)NC2=C3C(=O)CC(C)(C)C2)n1 [US20250313563, Compound 932652] | > 5 µM | > 5 µM
CCC1(c2cccc(-c3ccnc(C)c3C)c2)C2=C(CC(C)(C)CC2=O)NC2N=NC(C(F)(F)F)=C21 (stereo unspecified) [US20250313563, Compound 945529] | < 0.1 µM | < 0.1 µM and 0.1 to 1 µM
CCC1(c2cccc(S(=O)(=O)CCOC)c2)C2=CN=NC2NC2=C1C(=O)CC(C)(C)C2 (stereo unspecified) [US20250313563, Compound 918271] | < 0.1 µM | < 0.1 µM
CC1(C)CC(=O)C2=C(C1)NC1=C(CN=N1)[C@@]21CCCOCC1 [US20250313563, Compound 874536] | 0.1 to 1 µM | 1 to 5 µM
CCC1(c2cccc(-c3ccnc(C(C)C)c3)c2)C2=CN=NC2NC2=C1C(=O)CC(C)(C)C2 (stereo unspecified) [US20250313563, Compound 930569] | 0.1 to 1 µM | 1 to 5 µM
CC1(C)CC(=O)C2=C(C1)NC1=C(CN=N1)C21CC2(COC2)C1 [US20250313563, Compound 912168] | > 5 µM | > 5 µM
CC1(C)CC(=O)C2=C(C1)NC1=C(CN=N1)C21CC(c2ccccc2)C1 (stereo unspecified) [US20250313563, Compound 917081] | < 0.1 µM | < 0.1 µM
CC1(C)CC(=O)C2=C(C1)NC1=C(CN=N1)C21COC1 [US20250313563, Compound 889569] | 0.1 to 1 µM | 0.1 to 1 µM
CN(C)C(=O)c1cccc(S(=O)(=O)N2CCC3(CC2)C2=C(N=NC2)NC2=C3C(=O)CC(C)(C)C2)c1 [US20250313563, Compound 947247] | < 0.1 µM | < 0.1 µM

Structure (SMILES) | IC50 [1] | IC50 [2]
CCC1(c2cccc(-c3cc(C)nn3C)c2)C2=CN=NC2NC2=C1C(=O)CC(C)(C)C2 (stereo unspecified) [US20250313563, Compound 929402] | < 0.1 µM | 0.1 to 1 µM
CC[C@@]1(c2cccc(-c3ccncc3F)c2)C2=C(CC(C)(C)NC2=O)NC2N=NC(C(F)F)=C21 (stereo partly specified) [US20250313563, Compound 951599] | 0.1 to 1 µM | 0.1 to 1 µM
CCC1(c2cccc(-c3cn(C)nc3C)c2)C2=C(CC(C)(C)NC2=O)NC2N=NC(Cl)=C21 (stereo unspecified) [US20250313563, Compound 948768] | < 0.1 µM | < 0.1 µM
CC[C@]1(c2cccc(-c3cnn(C)c3)c2)C2=C(CC(C)(C)NC2=O)NC2N=NC(C(F)F)=C21 (stereo partly specified) [US20250313563, Compound 949911] | 0.1 to 1 µM | > 5 µM
CC1(C)CC(=O)C2=C(C1)NC1=C(CN=N1)[C@@]21CCO[C@@H](C(C)(C)C)C1 [US20250313563, Compound 912113] | 1 to 5 µM | 1 to 5 µM
Cc1cccc2c1CC[C@@]21C2=C(N=NC2)NC2=C1C(=O)CC(C)(C)C2 [US20250313563, Compound 913136] | < 0.1 µM | 0.1 to 1 µM
CC(C)(C)CC1=C2C(N=N1)NC1=C(C(=O)CC(C)(C)C1)[C@]21CCc2ccc(F)cc21 (stereo partly specified) [US20250313563, Compound 789504] | 1 to 5 µM | 0.1 to 1 µM
CC[C@]1(c2cccc(N(c3cccnc3)C(C)C)c2)C2=CN=NC2NC2=C1C(=O)CC(C)(C)C2 (stereo partly specified) [US20250313563, Compound 917086] | < 0.1 µM and 0.1 to 1 µM | < 0.1 µM and 1 to 5 µM
CC[C@]1(c2cccc(N(C)c3nccc(OC)n3)c2)C2=CN=NC2NC2=C1C(=O)CC(C)(C)C2 (stereo partly specified) [US20250313563, Compound 947336] | < 0.1 µM and 0.1 to 1 µM | < 0.1 µM and 1 to 5 µM
CC1(C)CC(=O)C2=C(C1)NC1=C(CN=N1)C2(c1ccccc1)c1ccccc1 [US20250313563, Compound 789461] | 1 to 5 µM | > 5 µM
CCC1(c2cccc(-c3c(C)nnn3C)c2)C2=CN=NC2NC2=C1C(=O)CC(C)(C)C2 (stereo unspecified) [US20250313563, Compound 943996] | < 0.1 µM | < 0.1 µM and 0.1 to 1 µM
CC[C@@]1(c2cccc(C(F)(F)F)c2)C2=CN=NC2NC2=C1C(=O)N(C)C[C@@H]2C (stereo partly specified) [US20250313563, Compound 883981] | > 5 µM | > 5 µM
CC1(C)CC(=O)C2=C(NC3=C(CN=N3)C23CCCCC3)[C@@H]1F [US20250313563, Compound 951705] | < 0.1 µM | < 0.1 µM
CC[C@@]1(c2cccc(-c3ccnc(C)c3)c2)C2=CN=NC2NC2=C1C(=O)C[C@@]1(CCOC1)C2 (stereo partly specified) [US20250313563, Compound 947411] | > 5 µM | > 5 µM
CC[C@]1(c2cccc(-c3cc(C)nnc3C)c2)C2=CN=NC2NC2=C1C(=O)NC(C)(C)C2 (stereo partly specified) [US20250313563, Compound 949334] | 1 to 5 µM | > 5 µM
Cc1ccc(S(=O)(=O)N2CCC3(CC2)C2=C(N=NC2)NC2=C3C(=O)CC(C)(C)C2)cc1 [US20250313563, Compound 947459] | < 0.1 µM | 0.1 to 1 µM
CC1(C)CC(=O)C2=C(C1)NC1=C(CN=N1)C21COC2(CN(C(=O)C3CCC(F)(F)C3)C2)C1 (stereo unspecified) [US20250313563, Compound 947265] | < 0.1 µM | 0.1 to 1 µM
CC[C@]1(c2cccc(C(F)(F)F)c2)C2=CN=NC2NC2=C1C(=O)N(CCOC)CC2 (stereo partly specified) [US20250313563, Compound 949599] | 0.1 to 1 µM | 0.1 to 1 µM
CC1(C)CC(=O)C2=C(C1)NC1=C(CN=N1)[C@]21COC2(CN(C(=O)Cc3ccccc3)C2)C1 [US20250313563, Compound 948036] | 0.1 to 1 µM | 0.1 to 1 µM
CC1(C)CC(=O)C2=C(C1)NC1=C(CN=N1)C21CCN(S(=O)(=O)c2ccc(Cl)cc2)CC1 [US20250313563, Compound 945661] | < 0.1 µM | < 0.1 µM
CC[C@]1(c2cccc(N3C[C@@H](C)[C@@H](C)C3)c2)C2=CN=NC2NC2=C1C(=O)CC(C)(C)C2 (stereo partly specified) [US20250313563, Compound 918326] | 0.1 to 1 µM | 0.1 to 1 µM
CC[C@]1(c2ccccc2)C2=CN=NC2NC2=C1C(=O)CC1(CCCC1)C2 (stereo partly specified) [US20250313563, Compound 789562] | < 0.1 µM | 0.1 to 1 µM
CC[C@]1(c2cccc(C3=CN(C)NC3C)c2)C2=C(N=NC2)NC2=C1C(=O)C(C)(C)C2 (stereo partly specified) [US20250313563, Compound 951710] | > 5 µM | > 5 µM
CCC1(c2cccc(C(F)(F)F)c2)C2=CN=NC2NC2=C1C(=O)N(c1ccc(C)cc1)CC2 (stereo unspecified) [US20250313563, Compound 948241] | < 0.1 µM | 0.1 to 1 µM
CC[C@]1(c2cccc(N(C)c3ncccn3)c2)C2=CN=NC2NC2=C1C(=O)NC(C)(C)C2 (stereo partly specified) [US20250313563, Compound 947825] | 0.1 to 1 µM | > 5 µM
CC[C@]1(c2cccc(-c3ccnc(C)c3)c2)C2=C(N=NC2)NC2=C1C(=O)C(C)(C)C2 [US20250313563, Compound 950282] | < 0.1 µM | 0.1 to 1 µM
